Laboratory results taken from patent US20240228488A1 (TAKEDA PHARMACEUTICAL COMPANY LIMITED, priority 2021, published 2024).
Where two headings read alike, the source gives them in different places.

Molecular target: human activated kallikrein enzyme (Homo sapiens, UniProt P03952)
Experiment: Plasma kallikrein inhibition, fluorogenic PFR-AMC substrate, 500 pM activated kallikrein format
Type: biochemical
Settings: read-out: Primary Dose Response Assay: Average EC50
Procedure: Compounds were evaluated for inhibition of the human activated kallikrein enzyme in two formats of an assay employing a fluorogenic peptide substrate. In one assay format, the concentrations of reagents were as follows: 20 mM Tris pH 7.5, 1 mM EDTA, 150 mM sodium chloride, 0.1% PEG-400, 0.1% Triton X-100, 500 pM activated kallikrein enzyme, 300 uM Pro-Phe-Arg-7-amido-4-methylcoumarin (PFR-AMC) substrate. Prior to reaction initiation with substrate, enzyme and inhibitors were preincubated for 30 min at room temperature. After initiation with substrate, reactions were incubated for 10 min at room temperature and fluorescence emission at 460 nm from 380 nm excitation measured with a microplate reader. In another assay format, the concentrations of reagents were as follows: 20 mM Tris pH 7.5, 1 mM EDTA, 150 mM sodium chloride, 0.1% PEG-400, 0.1% Triton X-100, 5 pM activated kallikrein enzyme, 300 uM PFR-AMC substrate. Prior to reaction initiation with substrate, enzyme and inhibitors were preincubated for 30 min at room temperature. After initiation with substrate, reactions were incubated for 18 hr at room temperature and fluorescence emission at 460 nm from 380 nm excitation measured with a microplate reader.
Table 49 provides the results of the assay in the format with 500 pM activated kallikrein assay. For the compounds listed in Table 49, the EC50 values are reported according to the following ranges: A≤1.0 nM; 1.0 nM<B≤10 nM; 10 nM<C≤100 nM; 100 nM<D≤1000 nM; 1000 nM<E≤6000 nM; 6000 nM<F.
Table 51 provides comparative plasma kallikrein inhibition potency in the assay format with 500 pM activated kallikrein assay (described in detail in a preceding example). For the compounds listed in Table 51, the EC50 values are reported according to the following ranges: A≤1.0 nM; 1.0 nM<B≤10 nM; 10 nM<C≤100 nM; 100 nM<D≤1000 nM; 1000 nM<E≤6000 nM; 6000 nM<F.

[1] = comparative compounds, 500 pM activated kallikrein format
[2] = 500 pM activated kallikrein, 300 uM PFR-AMC, 30 min preincubation, 10 min reaction

Chain of human activated kallikrein enzyme (P03952 391-638 limits assumed): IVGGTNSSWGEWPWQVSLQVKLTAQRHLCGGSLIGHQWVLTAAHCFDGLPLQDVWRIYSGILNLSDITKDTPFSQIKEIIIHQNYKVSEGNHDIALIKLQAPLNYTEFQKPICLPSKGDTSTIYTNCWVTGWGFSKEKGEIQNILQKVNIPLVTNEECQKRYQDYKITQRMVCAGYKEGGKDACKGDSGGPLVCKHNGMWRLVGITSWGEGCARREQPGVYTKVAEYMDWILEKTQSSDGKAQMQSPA
Chain of human activated kallikrein enzyme (P03952 20-390 partner limits assumed): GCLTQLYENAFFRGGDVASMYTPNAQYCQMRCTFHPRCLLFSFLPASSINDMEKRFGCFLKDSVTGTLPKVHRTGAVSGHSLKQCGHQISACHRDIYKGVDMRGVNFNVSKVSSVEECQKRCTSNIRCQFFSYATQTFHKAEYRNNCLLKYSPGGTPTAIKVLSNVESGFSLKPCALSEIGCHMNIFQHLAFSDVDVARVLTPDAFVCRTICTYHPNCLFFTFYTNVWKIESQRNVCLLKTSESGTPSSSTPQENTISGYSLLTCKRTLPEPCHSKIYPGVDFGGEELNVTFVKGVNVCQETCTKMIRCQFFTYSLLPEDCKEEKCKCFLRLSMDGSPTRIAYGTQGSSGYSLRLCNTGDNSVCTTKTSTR

O=C(NCc1cccc(Cl)c1)c1cnn(Cc2cn3cc(C4CC4)ccc3n2)c1
EC50 [1]: 1 to 6 µM

O=C(NCCc1cccc(Br)c1)c1cnn(Cc2cn3cc(C4CC4)ccc3n2)c1
EC50 [1]: 1 to 6 µM

O=C(NC1CC1Cc1cccc(Cl)c1)c1cnn(Cc2cn3cc(C4CC4)ccc3n2)c1 (stereo not shown)
EC50 [1]: 1 to 6 µM

O=C(Cc1ncn2ccc(Cl)cc12)Nc1cc(NCc2cn3cc(C4CC4)ccc3n2)ncn1
EC50 [1]: 0.001 to 0.01 µM

Clc1cccc([C@H]2C[C@@H]2CNc2cc(NCc3cn4cc(C5CC5)ccc4n3)ncn2)c1
EC50 [1]: 0.1 to 1 µM

O=c1ccc(NCc2cn3cc(C4CC4)ccc3n2)cn1NC[C@H]1C[C@@H]1c1cccc(Cl)c1
EC50 [1]: 1 to 6 µM

O=C(N[C@H]1C[C@@H]1c1cccc(Cl)c1)c1cc(NCc2cn3cc(C4CC4)ccc3n2)ncn1
EC50 [1]: 1 to 6 µM

O=C(Nc1cc(NCc2cn3cc(C4CC4)ccc3n2)ncn1)NC1CC1c1cccc(Cl)c1 (stereo not shown)
EC50 [1]: 1 to 6 µM

CC1CCC(=O)N1c1cc(C2CC2)cn2cc(CNc3ccnc(NC(=O)[C@H]4C[C@@H]4c4cccc(Cl)c4)c3)nc12 (mixture of isomers) [Example 89, (1S,2S)-2-(3-chlorophenyl)-N-(4-(((6-cyclopropyl-8-(2-methyl-5-oxopyrrolidin-1-yl)imidazo[1,2-a]pyridin-2-yl)methyl)amino)pyridin-2-yl)cyclopropane-1-carboxamide]
EC50 [2]: < 0.001 µM

O=C(Nc1cc(NCc2cn3cc(C4CC4)ccc3n2)ncn1)[C@H]1C[C@@H]1c1cccc(Cl)c1F (racemic) [Example 43, rac-(1S*,2S*)-2-(3-chloro-2-fluorophenyl)-N-(6-(((6-cyclopropylimidazo[1,2-a]pyridin-2-yl)methyl)amino)pyrimidin-4-yl)cyclopropane-1-carboxamide]
EC50 [2]: 0.01 to 0.1 µM

O=C(Nc1cc(NCc2cn3cc(C4CC4)ccc3n2)ncn1)[C@H]1C[C@@H]1c1cc(Cl)ccc1F (racemic) [Example 44, rac-(1S*,2S*)-2-(5-chloro-2-fluorophenyl)-N-(6-(((6-cyclopropylimidazo[1,2-a]pyridin-2-yl)methyl)amino)pyrimidin-4-yl)cyclopropane-1-carboxamide]
EC50 [2]: 0.01 to 0.1 µM

O=C(Nc1cc(NCc2cn3cc(C4CC4)ccc3n2)ncn1)[C@H]1C[C@@H]1c1ccc(F)c(Cl)c1 (racemic) [Example 45, rac-(1S*,2S*)-2-(3-chloro-4-fluorophenyl)-N-(6-(((6-cyclopropylimidazo[1,2-a]pyridin-2-yl)methyl)amino)pyrimidin-4-yl)cyclopropane-1-carboxamide]
EC50 [2]: 0.1 to 1 µM

O=C(Nc1cc(NCc2cn3cc(C4CC4)ccc3n2)ncn1)[C@H]1C[C@@H]1c1cc(F)cc(Cl)c1 (racemic) [Example 46, rac-(1S*,2S*)-2-(3-chloro-5-fluorophenyl)-N-(6-(((6-cyclopropylimidazo[1,2-a]pyridin-2-yl)methyl)amino)pyrimidin-4-yl)cyclopropane-1-carboxamide]
EC50 [2]: 0.01 to 0.1 µM

COc1ccc(Cl)cc1[C@H]1C[C@@H]1C(=O)Nc1cc(NCc2cn3cc(C4CC4)ccc3n2)ncn1 (racemic) [Example 47, rac-(1S*,2S*)-2-(5-chloro-2-methoxyphenyl)-N-(6-(((6-cyclopropylimidazo[1,2-a]pyridin-2-yl)methyl)amino)pyrimidin-4-yl)cyclopropane-1-carboxamide]
EC50 [2]: 0.1 to 1 µM

N#Cc1ccc(Cl)cc1[C@H]1C[C@@H]1C(=O)Nc1cc(NCc2cn3cc(C4CC4)ccc3n2)ncn1 (racemic) [Example 48, rac-(1S*,2S*)-2-(5-chloro-2-cyanophenyl)-N-(6-(((6-cyclopropylimidazo[1,2-a]pyridin-2-yl)methyl)amino)pyrimidin-4-yl)cyclopropane-1-carboxamide]
EC50 [2]: 0.001 to 0.01 µM

O=C(Nc1cc(NCc2cn3cc(C4CC4)ccc3n2)ncn1)[C@H]1C[C@@H]1c1cc(Cl)ccc1C(F)F (racemic) [Example 51, rac-(1S*,2S*)-2-(5-chloro-2-(difluoromethyl)phenyl)-N-(6-(((6-cyclopropylimidazo[1,2-a]pyridin-2-yl)methyl)amino)pyrimidin-4-yl)cyclopropane-1-carboxamide]
EC50 [2]: 0.01 to 0.1 µM

O=C(Nc1cc(NCc2cn3cc(C4CC4)ccc3n2)ncn1)[C@H]1C[C@@H]1c1cc(Cl)ccc1C(F)(F)F (racemic) [Example 52, rac-(1S*,2S*)-2-(5-chloro-2-(trifluoromethyl)phenyl)-N-(6-(((6-cyclopropylimidazo[1,2-α]pyridin-2-yl)methyl)amino)pyrimidin-4-yl)cyclopropane-1-carboxamide]
EC50 [2]: 0.1 to 1 µM

COc1cccc([C@H]2C[C@@H]2C(=O)Nc2cc(NCc3cn4cc(C5CC5)ccc4n3)ncn2)c1 (racemic) [Example 53, rac-(1S*,2S*)-N-(6-(6-cyclopropylimidazo[1,2-a]pyridin-2-yl)methyl)amino)pyrimidin-4-yl)-2-(3-methoxyphenyl)cyclopropane-1-carboxamide]
EC50 [2]: 0.1 to 1 µM

O=C(Nc1cc(NCc2cn3cc(C4CC4)ccc3n2)ncn1)[C@H]1C[C@@H]1c1cccc(Br)c1 (racemic) [Example 54, rac-(1S*,2S*)-2-(3-bromophenyl)-N-(6-(((6-cyclopropylimidazo[1,2-a]pyridin-2-yl)methyl)amino)pyrimidin-4-yl)cyclopropane-1-carboxamide]
EC50 [2]: 0.01 to 0.1 µM

O=C(Nc1cc(NCc2cn3cc(C4CC4)ccc3n2)ncn1)[C@H]1C[C@@H]1c1cccc(Cl)c1 (racemic) [Example 55, rac-(1S*,2S*)-2-(3-chlorophenyl)-N-(6-(((6-cyclopropylimidazo[1,2-a]pyridin-2-yl)methyl)amino)pyrimidin-4-yl)cyclopropane-1-carboxamide]
EC50 [2]: 0.001 to 0.01 µM

O=C(Nc1cc(NCc2cn3cc(C4CC4)cc(N4CCCC4=O)c3n2)ncn1)[C@H]1C[C@@H]1c1cccc(Cl)c1 (racemic) [Example 58, rac-(1S*,2S*)-2-(3-chlorophenyl)-N-(6-(((6-cyclopropyl-8-(2-oxopyrrolidin-1-yl)imidazo[1,2-α]pyridin-2-yl)methyl)amino)pyrimidin-4-yl)cyclopropane-1-carboxamide]
EC50 [2]: 0.001 to 0.01 µM

O=C(Nc1cc(NCc2cn3cc(C4CC4)cc(Cl)c3n2)ncn1)[C@H]1C[C@@H]1c1cccc(Cl)c1 (racemic) [Example 59, rac-(1S*,2S*)-N-(6-(((8-chloro-6-cyclopropylimidazo[1,2-α]pyridin-2-yl)methyl)amino)pyrimidin-4-yl)-2-(3-chlorophenyl)cyclopropane-1-carboxamide]
EC50 [2]: 0.001 to 0.01 µM

CCOC(=O)CCc1cc(C2CC2)cn2cc(CNc3cc(NC(=O)[C@H]4C[C@@H]4c4cccc(Cl)c4)ncn3)nc12 (racemic) [Example 61, rac-ethyl 3-(2-(((6-((1S*,2S*)-2-(3-chlorophenyl)cyclopropane-1-carboxamido)pyrimidin-4-yl)amino)methyl)-6-cyclopropylimidazo[1,2-α]pyridin-8-yl)propanoate]
EC50 [2]: 0.001 to 0.01 µM

CC1(C)CC(=O)N(c2cc(C3CC3)cn3cc(CNc4cc(NC(=O)[C@H]5C[C@@H]5c5cccc(Cl)c5)ncn4)nc23)C1 (racemic) [Example 66, rac-(1S*,2S*)-2-(3-chlorophenyl)-N-(6-(((6-cyclopropyl-8-(4,4-dimethyl-2-oxopyrrolidin-1-yl)imidazo[1,2-a]pyridin-2-yl)methyl)amino)pyrimidin-4-yl)cyclopropane-1-carboxamide]
EC50 [2]: 0.001 to 0.01 µM

O=C(Nc1cc(NCc2nc3ccc(C4CC4)cn3c2Cl)ncn1)[C@H]1C[C@@H]1c1cccc(Cl)c1 (racemic) [Example 69, rac-(1S*,2S*)-N-(6-(((3-chloro-6-cyclopropylimidazo[1,2-α]pyridin-2-yl)methyl)amino)pyrimidin-4-yl)-2-(3-chlorophenyl)cyclopropane-1-carboxamide]
EC50 [2]: 1 to 6 µM

O=C(O)CCc1cc(C2CC2)cn2cc(CNc3cc(NC(=O)[C@H]4C[C@@H]4c4cccc(Cl)c4)ncn3)nc12 (racemic) [Example 72, rac-3-(2-(((6-((1S*,2S*)-2-(3-chlorophenyl)cyclopropane-1-carboxamido)pyrimidin-4-yl)amino)methyl)-6-cyclopropylimidazo[1,2-a]pyridin-8-yl)propanoic acid]
EC50 [2]: 0.001 to 0.01 µM

O=C(Nc1cc(NCc2cn3cc(C4CC4)cc(CN4CCOCC4)c3n2)ncn1)[C@H]1C[C@@H]1c1cccc(Cl)c1 (racemic) [Example 73, rac-(1S*,2S*)-2-(3-chlorophenyl)-N-(6-(((6-cyclopropyl-8-(morpholinomethyl)imidazo[1,2-a]pyridin-2-yl)methyl)amino)pyrimidin-4-yl)cyclopropane-1-carboxamide]
EC50 [2]: 0.001 to 0.01 µM

O=C(Nc1cc(NCc2cn3cc(C4CC4)cc(N4CCOCC4=O)c3n2)ncn1)[C@H]1C[C@@H]1c1cccc(Cl)c1 (racemic) [Example 74, rac-(1S*,2S*)-2-(3-chlorophenyl)-N-(6-(((6-cyclopropyl-8-(3-oxomorpholino)imidazo[1,2-a]pyridin-2-yl)methyl)amino)pyrimidin-4-yl)cyclopropane-1-carboxamide]
EC50 [2]: < 0.001 µM
